Experimental findings from patent US6358964B1, “Adenosine, A3 receptor modulators” (priority 2000, dated 2002) are described below.

This assay has as its target T1, human recombinant A3 adenosine receptors (Homo sapiens, UniProt P0DMS8).
T1 construct: expressed in transfected cells; host or cells: CHO cells
T1 sequence (P0DMS8 1-318): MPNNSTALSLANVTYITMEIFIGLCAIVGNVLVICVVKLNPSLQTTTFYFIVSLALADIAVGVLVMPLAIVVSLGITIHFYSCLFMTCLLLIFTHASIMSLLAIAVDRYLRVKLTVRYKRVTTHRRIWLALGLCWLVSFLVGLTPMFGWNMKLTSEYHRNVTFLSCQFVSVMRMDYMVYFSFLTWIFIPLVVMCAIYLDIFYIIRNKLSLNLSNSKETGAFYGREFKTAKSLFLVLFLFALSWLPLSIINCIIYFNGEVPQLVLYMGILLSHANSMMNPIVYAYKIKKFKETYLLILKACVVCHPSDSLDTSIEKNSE
As to the kind of experiment: Human cloned A3 adenosine receptor binding assay ([3H]MRE3008-F20 displacement, CHO membranes). The settings on record: radioligand binding, read-out: binding affinity at human A3 receptors (hA3). As for the experimental part: Inhibitory binding constant, Ki, values can be calculated from those of IC50 according to the Cheng & Prusoff equation (Cheng and Prusoff, Biochem. Pharmacol. 22:3099-3108 (1973)), Ki=IC50/(1+[C*]/KD*), where [C*] is the concentration of the radioligand and KD* its dissociation constant.
The expression of the human […], A2A and A3 receptors in CHO cells has been previously described (Klotz et al., 1998). The cells were grown adherently and maintained in Dulbecco's modified Eagle's medium with nutrient mixture F12 without nucleosides at 37° C. in 5% CO2/95% air. Cells were split two or three times weekly and then the culture medium was removed for membrane preparations. […]
Binding of [^3H] […] Bound and free radioactivity were separated by filtering the assay mixture through Whatman GF/B glass-fiber filters using a Micro-mate 196 cell harvester (Packard Instrument Company). The filter bound radioactivity was counted on Top Count (efficiency 57%) with Micro-Scint 20. The protein concentration was determined according to a BioRad method (Bradford, M. M., “A rapid and sensitive method for the quantification of microgram quantities of protein utilizing the principle of protein dye-binding,” Anal. Biochem. 72, 248, 1976) with bovine albumin as reference standard.

Take `COc1ccc(NC(=O)Nc2nc3ccc(Cl)cc3c3nc(-c4ccco4)nn23)cc1` [Compound 1]: the Ki was 0.14 nM.

As to `O=C(Nc1cccc(Cl)c1)Nc1nc2ccc(Cl)cc2c2nc(-c3ccco3)nn12` [Compound 2], the Ki came out at 0.19 nM.
